Measured values: ChEMBL document CHEMBL1201862, “PubChem BioAssay data set” (2004)
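Five compound concentrations were applied to cells in 96-well plates for 48 hours; endpoints were derived by simple linear interpolation of the resulting dose-response curve. GI50 is the concentration that inhibits growth by half.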 The source made the active and inactive calls. Cut-off read from the data, not from the text of the source: active = GI50 up to about 1.1 µM and inactive = higher.

Assays:
Assay in all cases: NCI tumour cell line growth inhibition, 48 h
SW-620 = test system: SW-620
M14 = test system: M14
K562 = test system: K562
MCF7 = test system: MCF7
OVCAR-8 = test system: OVCAR-8
LOX IMVI = test system: LOX IMVI
UO-31 = test system: UO-31
COLO 205 = test system: COLO 205
SNB-75 = test system: SNB-75
OVCAR-4 = test system: OVCAR-4
786-0 = test system: 786-0
SK-OV-3 = test system: SK-OV-3
NCI-H522 = test system: NCI-H522
OVCAR-5 = test system: OVCAR-5
HOP-92 = test system: HOP-92
ACHN = test system: ACHN
RPMI-8226 = test system: RPMI-8226
HL-60 = test system: HL-60
SK-MEL-28 = test system: SK-MEL-28
SN12C = test system: SN12C

Row | Compound | GI50 (SW-620) | GI50 (M14) | GI50 (K562) | GI50 (MCF7) | GI50 (OVCAR-8) | GI50 (LOX IMVI) | GI50 (UO-31) | GI50 (COLO 205) | GI50 (SNB-75) | GI50 (OVCAR-4) | GI50 (786-0) | GI50 (SK-OV-3) | GI50 (NCI-H522) | GI50 (OVCAR-5) | GI50 (HOP-92) | GI50 (ACHN) | GI50 (RPMI-8226) | GI50 (HL-60) | GI50 (SK-MEL-28) | GI50 (SN12C)
1 | CCc1cc(Cc2cc(CC)c(NC(=O)C(=O)CC(=O)c3sc(-c4cccnc4)nc3C)c(CC)c2)cc(CC)c1NC(=O)C(=O)CC(=O)c1sc(-c2cccnc2)nc1C | > 100 µM (inactive) | > 100 µM (inactive) | > 100 µM (inactive) | > 100 µM (inactive) | > 100 µM (inactive) | > 100 µM (inactive) | > 100 µM (inactive) | > 100 µM (inactive) | > 100 µM (inactive) | > 100 µM (inactive) | > 100 µM (inactive) | > 100 µM (inactive) | > 100 µM (inactive) | > 100 µM (inactive) | > 100 µM (inactive) | > 100 µM (inactive) | > 100 µM (inactive) | > 100 µM (inactive) | > 100 µM (inactive) | > 100 µM (inactive)
2 | O=c1c2cc([N+](=O)[O-])ccc2nc2n1CCCCC2 | > 100 µM (inactive) | > 100 µM (inactive) | > 100 µM (inactive) | > 100 µM (inactive) | > 100 µM (inactive) | > 100 µM (inactive) | > 100 µM (inactive) | > 100 µM (inactive) | 57.1 µM (inactive) | > 100 µM (inactive) | > 100 µM (inactive) | > 100 µM (inactive) | > 100 µM (inactive) | > 100 µM (inactive) | > 100 µM (inactive) | > 100 µM (inactive) | > 100 µM (inactive) | 14.2 µM (inactive) | > 100 µM (inactive) | > 100 µM (inactive)
3 | CC1(C)OCC=CCO1 | > 100 µM (inactive) | > 100 µM (inactive) | 67.8 µM (inactive) | 56 µM (inactive) | > 100 µM (inactive) | 50.9 µM (inactive) | > 100 µM (inactive) | > 100 µM (inactive) | > 100 µM (inactive) | > 100 µM (inactive) |  | > 100 µM (inactive) | 69.8 µM (inactive) | > 100 µM (inactive) | > 100 µM (inactive) | > 100 µM (inactive) | > 100 µM (inactive) | 71.4 µM (inactive) | > 100 µM (inactive) | > 100 µM (inactive)
4 | c1ccc(C2=C(c3ccccc3)Sc3nnc(CCCCCCCCc4nnc5n4NC(c4ccccc4)=C(c4ccccc4)S5)n3N2)cc1 | > 100 µM (inactive) | 29.8 µM (inactive) | 25 µM (inactive) | 35.8 µM (inactive) | 48.6 µM (inactive) | 48.2 µM (inactive) | 27.4 µM (inactive) | 45.3 µM (inactive) | 63.2 µM (inactive) | 39.2 µM (inactive) | 61 µM (inactive) | > 100 µM (inactive) | 51.2 µM (inactive) | > 100 µM (inactive) | 54.8 µM (inactive) | 53.8 µM (inactive) | 27.4 µM (inactive) | 17.7 µM (inactive) | > 100 µM (inactive) | 77.3 µM (inactive)
5 | CC(C)(C)OC(=O)NCCC(=O)NC1(c2cc3ccccc3s2)CCCCC1 | 22.6 µM (inactive) | 18.4 µM (inactive) | 12.3 µM (inactive) | 17.5 µM (inactive) | 17.5 µM (inactive) | 18.2 µM (inactive) | 16.1 µM (inactive) | 17.5 µM (inactive) | 17.4 µM (inactive) | 13.4 µM (inactive) | 17.5 µM (inactive) | 24.4 µM (inactive) | 12.5 µM (inactive) | 19.7 µM (inactive) | 16.6 µM (inactive) | 24.5 µM (inactive) | 0.759 µM (active) | 16.7 µM (inactive) | 19.1 µM (inactive) | 18.3 µM (inactive)
6 | COC(=O)C1CCC(=O)N1C(c1ccc(OC)cc1)c1ccc2c(c1)OCO2 (configuration not stated) | 33.5 µM (inactive) | 28.5 µM (inactive) | 23.4 µM (inactive) | 36.7 µM (inactive) | 48.9 µM (inactive) | 50.4 µM (inactive) | 27.5 µM (inactive) | 37.9 µM (inactive) | 20.2 µM (inactive) | > 100 µM (inactive) | 62.8 µM (inactive) | 59.4 µM (inactive) | 22.4 µM (inactive) | 50 µM (inactive) | > 100 µM (inactive) | 97.9 µM (inactive) | 43.3 µM (inactive) | 21.2 µM (inactive) | 57.1 µM (inactive) | 57.9 µM (inactive)
7 | O=C1/C(=C/c2ccc(Cl)cc2)Sc2scc(-c3cccc([N+](=O)[O-])c3)[n+]21 | 1.76 µM (inactive) | 3.57 µM (inactive) | 0.459 µM (active) | 3.91 µM (inactive) | 7.55 µM (inactive) | 3.01 µM (inactive) | 4.43 µM (inactive) | 1.86 µM (inactive) | 0.971 µM (active) | 6.97 µM (inactive) | 2.16 µM (inactive) | 10.5 µM (inactive) | 0.44 µM (active) | 10.8 µM (inactive) | 2.17 µM (inactive) | 2.49 µM (inactive) | 1.39 µM (inactive) | 0.308 µM (active) | 2.81 µM (inactive) | 2.77 µM (inactive)
8 | COC(=O)/C(C#N)=C(\N)c1c(C)c2ccccc2oc1=N | > 100 µM (inactive) |  | > 100 µM (inactive) | > 100 µM (inactive) |  | > 100 µM (inactive) |  | > 100 µM (inactive) | > 100 µM (inactive) | > 100 µM (inactive) | > 100 µM (inactive) | > 100 µM (inactive) | > 100 µM (inactive) | > 100 µM (inactive) | > 100 µM (inactive) |  | > 100 µM (inactive) | > 100 µM (inactive) | > 100 µM (inactive) | > 100 µM (inactive)
9 | Cn1c2ccccc2c2c3c(c4c5ccccc5n(C)c4c21)C(=O)c1ccccc1C3=O | 79.1 µM (inactive) | 76.9 µM (inactive) |  | 67.1 µM (inactive) | 40.1 µM (inactive) | 37.3 µM (inactive) | 67.3 µM (inactive) | 57.7 µM (inactive) | 35.3 µM (inactive) | 58.3 µM (inactive) | 14.1 µM (inactive) | 48.9 µM (inactive) | 18.9 µM (inactive) | > 100 µM (inactive) | 53.3 µM (inactive) | 28.2 µM (inactive) | 70 µM (inactive) | 21 µM (inactive) | > 100 µM (inactive) | 61.2 µM (inactive)
10 | COc1ccc(NC(C)=O)cc1N1C(=O)/C(=C\c2cc(OC)c(OC)c(OC)c2)S(=O)(=O)C1c1ccccc1 (configuration not stated) | 50.4 µM (inactive) | 69.5 µM (inactive) | 28.5 µM (inactive) | 33 µM (inactive) | 59.4 µM (inactive) | 68.1 µM (inactive) | 38.7 µM (inactive) | 39 µM (inactive) | 39 µM (inactive) | 31.6 µM (inactive) | 72.9 µM (inactive) | > 100 µM (inactive) | 45.5 µM (inactive) | 23.5 µM (inactive) | 51.3 µM (inactive) | 70.5 µM (inactive) | 65.8 µM (inactive) | 19.3 µM (inactive) | 39.3 µM (inactive) | 50.8 µM (inactive)
11 | O=C(CC(O)c1cccnc1)CC(O)c1cccnc1 (configuration not stated) | 4.97 µM (inactive) | 14.2 µM (inactive) | 2.75 µM (inactive) | 4.34 µM (inactive) | 15.3 µM (inactive) | 5.18 µM (inactive) | 17.4 µM (inactive) | 14.1 µM (inactive) | 14.5 µM (inactive) | 20.7 µM (inactive) | 16.3 µM (inactive) | 17.5 µM (inactive) | 13.4 µM (inactive) | 24.2 µM (inactive) | 17.4 µM (inactive) | 17.8 µM (inactive) | 3.29 µM (inactive) | 3.17 µM (inactive) | 19.5 µM (inactive) | 18.6 µM (inactive)
12 | O=c1oc2ccc([N+](=O)[O-])cc2cc1-c1csc(-c2ccccc2)n1 | > 100 µM (inactive) | > 100 µM (inactive) | > 100 µM (inactive) | > 100 µM (inactive) | > 100 µM (inactive) | > 100 µM (inactive) | > 100 µM (inactive) | > 100 µM (inactive) | 0.817 µM (active) | > 100 µM (inactive) | > 100 µM (inactive) | > 100 µM (inactive) | > 100 µM (inactive) | > 100 µM (inactive) | > 100 µM (inactive) | > 100 µM (inactive) | > 100 µM (inactive) | > 100 µM (inactive) | > 100 µM (inactive) | > 100 µM (inactive)
13 | CCOC(=O)c1cc(-c2ccc(OC)c(OC)c2)cn1C |  | > 10 µM (inactive) | > 10 µM (inactive) | > 10 µM (inactive) | > 10 µM (inactive) | > 10 µM (inactive) | > 10 µM (inactive) | > 10 µM (inactive) | 4.43 µM (inactive) | > 10 µM (inactive) | > 10 µM (inactive) | > 10 µM (inactive) | > 10 µM (inactive) | > 10 µM (inactive) | > 10 µM (inactive) | > 10 µM (inactive) | > 10 µM (inactive) | > 10 µM (inactive) | > 10 µM (inactive) | > 10 µM (inactive)
14 | CC(=O)Nc1cc2c3c(c1)CCCN3CCC2 | > 100 µM (inactive) | > 100 µM (inactive) | > 100 µM (inactive) | > 100 µM (inactive) | > 100 µM (inactive) | > 100 µM (inactive) | > 100 µM (inactive) | > 100 µM (inactive) | 65.5 µM (inactive) | > 100 µM (inactive) | > 100 µM (inactive) | > 100 µM (inactive) | > 100 µM (inactive) | > 100 µM (inactive) | > 100 µM (inactive) | > 100 µM (inactive) | > 100 µM (inactive) | > 100 µM (inactive) | > 100 µM (inactive) | 
